Results as given in patent US5814627A, “3, 5-disubstituted and 3, 4, 5-trisubstituted 2-isoxazolines and isoxazoles, process for their preparation and their use as pharmaceuticals” (Hoechst Aktienegesellschaft, priority 1994, dated 1998).

Experiments:
[1] = test system: polymorphonuclear leucocytes (PMNL); test: Test 2: Release of oxygen radicals from human PMNL; assay type: cell-based; conditions: read-out: Test 2 residual activity (release of oxygen radicals), percent of control
Description: Isolation of polymorphonuclear leucocytes (PMNL) from human peripheral blood for carrying out tests 1 and 2 10 ml of human blood were diluted with 10 ml of HBSS (Serva) and underlaid with 15 ml of Lymphoprep (Dr. Molter GmbH, Heidelberg). The sample was then centrifuged for 25 minutes at 400×g (1600 revolutions per minute, Minifuge 2, Heraeus, Osterode). […] A white ring, composed of mononuclear cells, is located between these two phases. The lowermost phase is composed of erythrocytes which are covered with a white layer of PMNL. The uppermost phase, and also the Lymphoprep and the white ring, were carefully removed using a syringe. The remaining sediment was carefully resuspended in 15 ml of 3% dextran in PM16 (mw: 485,000, Sigma, Deisenhofen). The suspension was then left to stand at room temperature for one hour. During this time, the erythrocytes sedimented while the PMNL remained in the supernatant. The supernatant was removed, diluted with an approximately equal volume of PM16, and centrifuged for 15 minutes at 400×g. Should the PMNL sediment be heavily contaminated with erythrocytes, it is necessary to carry out a hypotonic lysis. To do this, the sediment was resuspended in 750 μl of water. After exactly 15 seconds, the suspension was diluted with approximately 7 ml of PM16 and centrifuged for 10 minutes at 400×g. If necessary, this lysis was repeated once more. Otherwise, the PMNL sediment was resuspended in a suitable medium.
The PMNL were resuspended (5·10^6 cells/ml) in Dulbecco's PBS, supplemented with 7.5 mM glucose. Care must be taken to ensure that the PMNL are free of erythrocytes. 100 μl of PMNL, 700 μl of PBS+glucose and 100 μl of cytochrome C (9.38 mg/ml of PBS+glucose) were mixed in a semi-microcuvette. 100 μl of PMNL, 500 μl of PBS+glucose, 100 μl of cytochalasin B ([…]), 100 μl of TNF (0.05 ng) and 100 μl of cytochrome C (9.38 mg/ml of PBS+glucose) were mixed for the fMLP-induced release of oxygen. Measurements were made in a double-beam photometer meter (Perkin-Elmer 552 S) at a wavelength of 550 nm. The measurement range is 0-1 extinction units. The cuvettes were temperature-equilibrated to 37° C. The reference cuvette additionally contained 10 μl of SOD (6 mg of SOD/ml of PBS+glucose). Following a preincubation of 5 minutes, the reaction is started with 100 μl of inducer. The reaction is started with 1·10^-7 mol of fMLP.
The values in the table show the concentration of the test substance which was employed in μM and, besides this, the residual activity measured in percent based on the control, which was set to be 100%. The interleukin is additionally indicated in test 4.

[2] = test system: leukotriene B4 synthesis in white blood cells; test: Test 3: LTB4 formation by white blood cells; assay type: cell-based; conditions: Homo sapiens, read-out: Test 3 residual activity (LTB4 formation), percent of control
In short: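 Human blood leukocytes (dextran sedimentation, 10^7 cells/ml) preincubated 15 min at 37 °C with compound plus CaCl2/MgCl2, then stimulated with A23187/glutathione for 5 min at 37 °C. LTB4 in supernatant quantified by reversed-phase HPLC with UV at 280 nm; residual activity given as percent of control at stated μM concentration.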

[3] = test system: tumor cell line 20-10-5S (hybridoma cell line); test: Test 8: Inhibition of tumor cell proliferation; assay type: cell-based; conditions: 48 h + 16 h tritiated thymidine incorporation; 20-10-5S cells
Description: The tumor cell line 20-10-5S (hybridoma cell line, supplied by ATCC (American Type Culture Collection)), which produces an antibody against mouse T cells) was used for determining the antiproliferative property of test substances. The cells were cultured, at 37° C. and 5% C2, under serum-free conditions in CG medium (cell-growth medium=Iscove-ATL (+albumin+transferrin+lipids); from Vitromex, Vilshofen). Only cells which were in the logarithmic phase of growth were used for the test mixture. The test substances were pipetted in various concentrations (from 1 to 50 μM), together with 4×10^3 20-10-5S cells, into round-bottomedmicrotiter plates (total volume with medium, 200 μl). After an incubation time of 48 h (37° C. and 5% CO2), 25 μl of tritiated thymidine (=0.25 μCi/test mixture, specific activity, 23 Ci/mM) were added to the plates. During the subsequent 16 h, the radioactively labeled thymidine was incorporated into the DNA of the growing cells. The samples were filtered off with suction on glass fiber filters and the incorporated radioactivity was measured using a β counter (Beta Plate System 1205 from Wallac).

[4] = test system: cyclooxygenase-dependent thrombocyte aggregation; test: Test 5: Cyclooxygenase-dependent thrombocyte aggregation; assay type: cell-based, human; conditions: Homo sapiens, arachidonic acid as inducer, read-out: Test 5 residual activity (cyclooxygenase-dependent thrombocyte aggregation), percent of control
In short: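 Citrated human platelet-rich plasma was preincubated 10 min at 37 °C with test substance diluted 1:30 in 50 mM Tris-HCl pH 8.0, 90 mM NaCl. Aggregation was triggered with arachidonic acid (5 mg/ml, 20 μl) under 800 rpm stirring in an aggregometer. Values are tested concentration (μM) and residual activity as % of control.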

Row | Structure (SMILES) | activity at 5 µM [1] [%] | activity at 50 µM [1] [%] | activity at 1 µM [2] [%] | activity at 10 µM [2] [%] | IC50 [3] [µM] | activity at 100 µM [4] [%] | activity at 10 µM ([1]; 10 μM) [%] | activity at 25 µM ([1]; 25 μM) [%] | activity at 10 µM ([4]; 10 μM) [%]
1 | CC(C)(C)c1cc(-c2cc(CNS(=O)(=O)C(F)(F)F)on2)cc(C(C)(C)C)c1O [Example 49, N-(3-(4-Hydroxy-3,5-di-tert-butylphenyl)isoxazol-5-ylmethyl)trifluoromethanesulfonamide] | 80 | 12 | 90 | 0 | 5 to 10 |  |  |  | 
2 | CC(C)(C)c1cc(C2=NOC(c3ccccn3)C2)cc(C(C)(C)C)c1O (stereo not drawn) [Example 9] |  |  | 59 | 0 |  | 92 |  |  | 
3 | CC(O)c1cc(-c2cc(C(C)(C)C)c(O)c(C(C)(C)C)c2)no1 (stereo not drawn) [Example 28] |  |  | 14 | 0 | < 5 |  | 60 | 8 | 93
4 | CCOC(=O)CNC(=O)OCCCc1cc(-c2cc(C(C)(C)C)c(O)c(C(C)(C)C)c2)no1 [Example 41, N-(3-(4-Hydroxy-3,5-di-tert-butylphenyl)isoxazol-5-ylpropoxycarbonyl)glycine ethyl ester] | 75 | 36 |  | 13 | < 5 | 95 |  |  | 
5 | CC(C)(C)c1cc(C2CC(CCC(=O)O)=NO2)cc(C(C)(C)C)c1O (stereo not drawn) [Example 63, 5-(4-Hydroxy-3,5-di-tert-butylphenyl)-2-isoxazolin-3-ylpropionic acid] |  | 79 |  | 91 |  |  |  |  | 
